Assays:
Pityrosporum ovlae = experiment: Antibacterial activity against Pityrosporum ovlae (general statement); format: cell-based
Solubility = format: physicochemical
[1] = Stability of iodopropynyl butylcarbamate to temperature and pH; conditions: 70~80° C. and pH 4~10
[2] = cited from earlier work; for Acute Oral LD50: rats
[3] = cited from earlier work

CCCCNC(=O)OCC#CI [iodopropynyl butylcarbamate]
MIC (Pityrosporum ovlae): very low | antibacterial action (Pityrosporum ovlae): very strong | solubility in alcohols or glycol derivatives (Solubility; alcohols or glycol derivatives): high solubility | solubility in ionic or non-ionic surfactants (Solubility; ionic or non-ionic surfactants): good solubility | solubility in water (Solubility; water): low solubility | stability [1]: very stable | safety and toxicity compared with zinc pyrithione ([2]; compared with zinc pyrithione): very advantageous over zinc pyrithione | Acute Oral LD50 [2]: 1470 mg/kg

[O-]n1ccccc1=S.[O-]n1ccccc1=S.[Zn+2] [zinc pyrithione, zinc salt of 1-hydroxy-2(1H) pyridinethione]
Acute Oral LD50 [2]: 354 mg/kg | solubility in ethanol ([3]; ethanol): 310 ppm | solubility in water at 25° C. ([3]; water, 25° C.): about 15 ppm | solubility ([3]; water, ethanol and most common organic solvents such as ethylene glycol, diethyl ether and isopropanol): substantially insoluble

From patent US6054450A, “Hair-care cosmetic compositions having dandruff formation-suppressing effect” (Pacific Corporation, priority 1997, dated 2000)
